{"source": "patent US20160122342A1", "about": "“ENHANCER OF ZESTE HOMOLOG 2 INHIBITORS” (GLAXOSMITHKLINE INTELLECTUAL PROPERTY (NO.2) LIMITED, priority 2013, published 2016)", "note": "Where a name gives a salt, the structure may show the parent alone.", "data": [{"target": "T1, EZH2 within the PRC2 complex (Homo sapiens, UniProt Q15910)", "T1 construct": "FLAG; made in house; host or cells: Sf9 cells", "T1 sequence (Q15910 whole entry)": "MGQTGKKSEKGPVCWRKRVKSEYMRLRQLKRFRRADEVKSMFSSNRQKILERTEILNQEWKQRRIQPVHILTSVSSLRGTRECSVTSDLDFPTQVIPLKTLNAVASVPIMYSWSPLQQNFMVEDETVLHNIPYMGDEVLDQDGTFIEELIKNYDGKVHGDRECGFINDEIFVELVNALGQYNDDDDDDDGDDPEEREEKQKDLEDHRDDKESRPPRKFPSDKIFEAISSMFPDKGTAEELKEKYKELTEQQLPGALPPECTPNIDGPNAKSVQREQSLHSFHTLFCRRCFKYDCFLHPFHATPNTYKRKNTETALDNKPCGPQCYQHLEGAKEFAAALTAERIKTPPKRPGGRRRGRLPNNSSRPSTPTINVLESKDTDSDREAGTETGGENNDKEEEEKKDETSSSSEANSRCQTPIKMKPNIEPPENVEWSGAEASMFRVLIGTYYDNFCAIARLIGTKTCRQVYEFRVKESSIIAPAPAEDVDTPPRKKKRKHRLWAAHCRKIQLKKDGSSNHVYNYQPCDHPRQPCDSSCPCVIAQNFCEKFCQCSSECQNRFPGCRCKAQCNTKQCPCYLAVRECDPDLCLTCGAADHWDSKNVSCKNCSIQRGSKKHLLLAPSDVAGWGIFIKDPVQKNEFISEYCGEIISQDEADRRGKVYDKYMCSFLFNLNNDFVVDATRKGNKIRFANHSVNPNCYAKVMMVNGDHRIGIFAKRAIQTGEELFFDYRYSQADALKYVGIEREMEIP", "T1 sequence (O75530 whole entry partner)": "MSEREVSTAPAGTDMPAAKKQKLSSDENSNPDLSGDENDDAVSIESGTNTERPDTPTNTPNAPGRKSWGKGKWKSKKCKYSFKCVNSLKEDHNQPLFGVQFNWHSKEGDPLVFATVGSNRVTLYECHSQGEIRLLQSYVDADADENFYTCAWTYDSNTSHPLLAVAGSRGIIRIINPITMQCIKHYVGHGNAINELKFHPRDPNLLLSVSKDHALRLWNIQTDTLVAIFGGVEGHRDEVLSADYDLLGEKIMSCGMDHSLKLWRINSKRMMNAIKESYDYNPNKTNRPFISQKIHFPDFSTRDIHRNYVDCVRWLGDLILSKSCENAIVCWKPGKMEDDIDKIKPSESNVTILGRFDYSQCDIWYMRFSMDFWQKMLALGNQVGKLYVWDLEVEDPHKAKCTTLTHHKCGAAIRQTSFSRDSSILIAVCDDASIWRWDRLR", "T1 sequence (Q15022 whole entry partner)": "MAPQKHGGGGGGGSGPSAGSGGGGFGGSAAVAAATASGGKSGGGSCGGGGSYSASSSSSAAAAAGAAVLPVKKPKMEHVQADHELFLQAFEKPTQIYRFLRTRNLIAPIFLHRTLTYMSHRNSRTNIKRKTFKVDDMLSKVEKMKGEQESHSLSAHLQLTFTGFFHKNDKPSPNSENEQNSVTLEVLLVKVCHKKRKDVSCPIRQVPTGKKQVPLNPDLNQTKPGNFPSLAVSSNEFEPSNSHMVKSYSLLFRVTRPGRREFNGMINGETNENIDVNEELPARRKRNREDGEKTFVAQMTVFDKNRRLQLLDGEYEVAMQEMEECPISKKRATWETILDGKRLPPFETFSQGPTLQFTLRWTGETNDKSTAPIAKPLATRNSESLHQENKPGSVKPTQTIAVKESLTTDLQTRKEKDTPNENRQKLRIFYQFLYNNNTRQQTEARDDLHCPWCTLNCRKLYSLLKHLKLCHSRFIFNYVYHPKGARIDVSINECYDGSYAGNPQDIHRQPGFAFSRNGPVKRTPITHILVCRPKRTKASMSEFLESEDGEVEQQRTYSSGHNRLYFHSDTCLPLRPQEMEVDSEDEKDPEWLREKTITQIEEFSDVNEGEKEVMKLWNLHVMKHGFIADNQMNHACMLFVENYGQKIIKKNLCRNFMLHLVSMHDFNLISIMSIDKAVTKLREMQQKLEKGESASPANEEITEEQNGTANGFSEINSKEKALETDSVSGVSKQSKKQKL", "T1 sequence (Q09028 whole entry partner)": "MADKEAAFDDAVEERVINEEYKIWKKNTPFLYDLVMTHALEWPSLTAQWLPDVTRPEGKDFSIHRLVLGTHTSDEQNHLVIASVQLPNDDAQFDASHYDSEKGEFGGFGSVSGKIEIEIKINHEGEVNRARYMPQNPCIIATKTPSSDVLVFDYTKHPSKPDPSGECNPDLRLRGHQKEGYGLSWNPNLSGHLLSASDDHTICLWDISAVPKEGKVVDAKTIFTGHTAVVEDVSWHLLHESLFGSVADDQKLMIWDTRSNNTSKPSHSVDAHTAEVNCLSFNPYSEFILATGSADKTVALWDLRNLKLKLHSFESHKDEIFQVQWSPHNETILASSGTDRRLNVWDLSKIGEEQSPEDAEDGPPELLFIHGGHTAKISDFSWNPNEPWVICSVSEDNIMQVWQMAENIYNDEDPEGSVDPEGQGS", "T1 sequence (Q6ZN18 whole entry partner)": "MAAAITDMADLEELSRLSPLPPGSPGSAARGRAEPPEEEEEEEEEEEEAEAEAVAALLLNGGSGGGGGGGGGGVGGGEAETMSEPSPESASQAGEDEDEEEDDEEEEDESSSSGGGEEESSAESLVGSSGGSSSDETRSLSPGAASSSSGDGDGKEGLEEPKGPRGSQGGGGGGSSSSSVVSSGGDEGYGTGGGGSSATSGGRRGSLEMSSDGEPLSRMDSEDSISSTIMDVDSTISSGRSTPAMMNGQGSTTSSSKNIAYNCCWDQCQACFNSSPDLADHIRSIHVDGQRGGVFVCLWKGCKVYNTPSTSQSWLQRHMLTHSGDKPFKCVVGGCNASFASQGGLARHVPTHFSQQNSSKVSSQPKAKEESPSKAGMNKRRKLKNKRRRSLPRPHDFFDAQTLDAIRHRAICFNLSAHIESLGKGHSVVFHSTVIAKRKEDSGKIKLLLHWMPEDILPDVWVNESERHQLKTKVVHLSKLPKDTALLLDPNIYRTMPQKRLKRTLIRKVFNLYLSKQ", "assay": "Assay Protocol 1: EZH2 methyltransferase scintillation proximity assay, mononucleosome substrate", "format": "biochemical", "conditions": "not given", "experimental": "(§1) Compounds contained herein were evaluated for their ability to inhibit the methyltransferase activity of EZH2 within the PRC2 complex. […] Mononucleosomes were captured on SPA beads and the resulting signal is read on a ViewLux plate reader. • 1. Prepare 10 mM stock of compounds from solid in 100% DMSO. • 2. […] Dispense 100 nL of compound from the dilution plate into reaction plates (Grenier Bio-One, 384-well, Cat#784075). Prepare the following solutions: • 1. 50 mM Tris-HCl, pH 8: Per 1 L of base buffer, combine 1 M Tris-HCl, pH 8 (50 mL) and distilled water (950 mL). • 2. 1× Assay Buffer: […] SPA Bead Suspension: […] Per 10 mL of 2× Substrate Solution, combine 1× Assay Buffer (9728.55 uL), 800 ug/mL mononucleosomes (125 uL), 1 mM cold SAM (4 uL), and 7.02 uM 3H-SAM (142.45 uL; 0.55 mCi/mL) to provide a final concentration of 5 ug/mL nucleosomes, 0.2 uM cold SAM, and 0.05 uM 3H-SAM. • 6. 2.67× Quench/Bead Mixture: Per 10 mL of 2.67× Quench/Bead Mixture, combine ddH2O (9358 uL), 10 mM cold SAM (267 uL), 40 mg/mL Bead Suspension (375 uL) to provide a final concentration of 100 uM cold SAM and 0.5 mg/mL SPA beads. • 1. Dispense 100 nL/well of 100× Compound to test wells (as noted above). • 2. […] • 1. Dispense 5 uL/well of 1× Assay Buffer to column 18 (low control reactions). • 2. Dispense 5 uL/well of 2× Enzyme Solution to columns 1-17, 19-24. • 3. Spin assay plates for ˜1 minute at 500 rpm. • 4. Stack the assay plates, covering the top plate. • 5. Incubate the compound/DMSO with the enzyme for 30 minutes at room temperature. • 6. Dispense 5 uL/well of 2× Substrate Solution to columns 1-24. • 7. Spin assay plates for ˜1 minute at 500 rpm. • 8. Stack the assay plates, covering the top plate. • 9. Incubate the assay plates at room temperature for 1 hour. • 1. Dispense 5 uL/well of the 3× Quench/Bead Mixture to columns 1-24. • 2. Seal the top of each assay plate with adhesive TopSeal. • 3. Spin assay plates for ˜1 minute at 500 rpm. • 4. […] • 1. Read the assay plates on the Viewlux Plate Reader utilizing the 613 nm emission filter with a 300 s read time. Reagent addition can be done manually or with automated liquid handler. The final DMSO concentration in this assay is 1%. The positive control is in column 6; negative control is in column 18. Final starting concentration of compounds is 100 μM. Percent inhibition was calculated relative to the DMSO control for each compound concentration and the resulting values were fit using standard IC50 fitting parameters within the ABASE data fitting software package.", "units": {"IC50": "nM"}, "values": [{"smiles": "Cc1cc2c(c(=O)[nH]1)CNC(=O)c1cc(Cl)cc(O[C@H]3CC[C@H](N)CC3)c1C/C=C\\CC2", "note": "[Example 4, (Z)-10-((trans-4-aminocyclohexyl)oxy)-12-chloro-3-methyl-5,6,15,16-tetrahydrobenzo[c]pyrido[4,3-j][1]azacyclododecine-1,14(2H,9H)-dione hydrochloride]", "IC50": 2510}]}, {"target": "T1, EZH2 within the PRC2 complex", "assay": "Assay Protocol 1: EZH2 methyltransferase scintillation proximity assay, mononucleosome substrate", "format": "biochemical", "conditions": "Assay Protocol 1; SPA, 3H-SAM, Histone H3 of mononucleosome purified from HeLa cells; 5-member PRC2 complex; read-out: EZH2 IC50", "experimental": "as §1", "units": {"IC50": "nM"}, "values": [{"smiles": "Cc1cc2c(c(=O)[nH]1)CNC(=O)c1cc(Cl)cc(O[C@H]3CC[C@H](N(C)C)CC3)c1C/C=C\\CC2", "note": "[Example 5, (Z)-12-chloro-10-((trans-4-(dimethylamino)cyclohexyl)oxy)-3-methyl-5,6,15,16-tetrahydrobenzo[c]pyrido[4,3-j][1]azacyclododecine-1,14(2H,9H)-dione]", "IC50": 2510}, {"smiles": "CCN(c1cccc2c1C/C=C\\CCc1cc(C)[nH]c(=O)c1CNC2=O)C1CCOCC1", "note": "[Example 7, (Z)-10-(ethyl(tetrahydro-2H-pyran-4-yl)amino)-3-methyl-5,6,15,16-tetrahydrobenzo[c]pyrido[4,3-j][1]azacyclododecine-1,14(2H,9H)-dione hydrochloride, 0.10 1,4-dioxane solvate]", "IC50": 1590}, {"smiles": "CCN(c1cccc2c1C/C=C/CN(C)Cc1cc(C)[nH]c(=O)c1CNC2=O)C1CCOCC1", "note": "[Example 10, (E)-11-(ethyl(tetrahydro-2H-pyran-4-yl)amino)-3,6-dimethyl-5,6,7,10,16,17-hexahydro-1H-benzo[h]pyrido[4,3-c][1,6]diazacyclotridecine-1,15(2H)-dione]", "IC50": 1000}, {"smiles": "CCN(c1cccc2c1CCCCOCc1cc(C)[nH]c(=O)c1CNC2=O)C1CCOCC1", "note": "[Example 11, 11-(ethyl(tetrahydro-2H-pyran-4-yl)amino)-3-methyl-7,8,9,10,16,17-hexahydrobenzo[h]pyrido[4,3-c][1,6]oxaazacyclotridecine-1,15(2H,5H)-dione]", "IC50": 501}, {"smiles": "CCN(c1cccc2c1C/C=C\\COc1cc(C)[nH]c(=O)c1CNC2=O)C1CCOCC1", "note": "[Example 13, (Z)-10-(ethyl(tetrahydro-2H-pyran-4-yl)amino)-3-methyl-6,9,15,16-tetrahydro-1H-benzo[g]pyrido[4,3-b][1,5]oxaazacyclododecine-1,14(2H)-dione]", "IC50": 794}, {"smiles": "COc1cc(Cl)cc2c1C/C=C/CCc1cc(C)[nH]c(=O)c1CNC2=O", "note": "[Example 15, (E)-12-chloro-10-methoxy-3-methyl-5,6,15,16-tetrahydrobenzo[c]pyrido[4,3-j][1]azacyclododecine-1,14(2H,9H)-dione]", "IC50": 501}, {"smiles": "CCN(c1cc(Cl)cc2c1C/C=C\\CCc1cc(C)[nH]c(=O)c1CNC2=O)C1CCOCC1", "note": "[Example 16, (Z)-12-chloro-10-(ethyl(tetrahydro-2H-pyran-4-yl)amino)-3-methyl-5,6,15,16-tetrahydrobenzo[c]pyrido[4,3-j][1]azacyclododecine-1,14(2H,9H)-dione hydrochloride]", "IC50": 501}, {"smiles": "CCN(c1cccc2c1C/C=C\\CC(C)c1cc(C)[nH]c(=O)c1CNC2=O)C1CCOCC1", "note": "(stereo not shown) [Example 22, (Z)-10-(ethyl(tetrahydro-2H-pyran-4-yl)amino)-3,5-dimethyl-5,6,15,16-tetrahydrobenzo[c]pyrido[4,3-j][1]azacyclododecine-1,14(2H,9H)-dione]", "IC50": 6310}, {"smiles": "CCN(c1cccc2c1C/C=C/CC(C)c1cc(C)[nH]c(=O)c1CNC2=O)C1CCOCC1", "note": "(stereo not shown) [Example 23, (E)-10-(ethyl(tetrahydro-2H-pyran-4-yl)amino)-3,5-dimethyl-5,6,15,16-tetrahydrobenzo[c]pyrido[4,3-j][1]azacyclododecine-1,14(2H,9H)-dione]", "IC50": 126}, {"smiles": "CCN(c1cccc2c1CCCCC(C)c1cc(C)[nH]c(=O)c1CNC2=O)C1CCOCC1", "note": "(stereo not shown) [Example 24, 10-(ethyl(tetrahydro-2H-pyran-4-yl)amino)-3,5-dimethyl-6,7,8,9,15,16-hexahydrobenzo[c]pyrido[4,3-j][1]azacyclododecine-1,14(2H,5H)-dione]", "IC50": 631}, {"smiles": "CCN(c1cccc2c1C/C=C/C(CO)Cc1cc(C)[nH]c(=O)c1CNC2=O)C1CCOCC1", "note": "(stereo not shown) [Example 25, (E)-10-(ethyl(tetrahydro-2H-pyran-4-yl)amino)-6-(hydroxymethyl)-3-methyl-5,6,15,16-tetrahydrobenzo[c]pyrido[4,3-j][1]azacyclododecine-1,14(2H,9H)-dione]", "IC50": 158}, {"smiles": "CCN(c1cccc2c1C/C=C\\C(CO)Cc1cc(C)[nH]c(=O)c1CNC2=O)C1CCOCC1", "note": "(stereo not shown) [Example 26, (Z)-10-(ethyl(tetrahydro-2H-pyran-4-yl)amino)-6-(hydroxymethyl)-3-methyl-5,6,15,16-tetrahydrobenzo[c]pyrido[4,3-j][1]azacyclododecine-1,14(2H,9H)-dione]", "IC50": 12600}, {"smiles": "CCN(c1cccc2c1CCCC(CO)Cc1cc(C)[nH]c(=O)c1CNC2=O)C1CCOCC1", "note": "(stereo not shown) [Example 27, 10-(ethyl(tetrahydro-2H-pyran-4-yl)amino)-6-(hydroxymethyl)-3-methyl-6,7,8,9,15,16-hexahydrobenzo[c]pyrido[4,3-j][1]azacyclododecine-1,14(2H,5H)-dione]", "IC50": 316}, {"smiles": "CCN(c1cccc2c1CCCC(O)CCc1cc(C)[nH]c(=O)c1CNC2=O)C1CCOCC1", "note": "(stereo not shown) [Example 28, 11-(ethyl(tetrahydro-2H-pyran-4-yl)amino)-7-hydroxy-3-methyl-5,6,7,8,9,10,16,17-octahydro-1H-benzo[c]pyrido[4,3-k][1]azacyclotridecine-1,15(2H)-dione]", "IC50": 631}, {"smiles": "CCN(c1cccc2c1C/C=C/CCc1cc(C)[nH]c(=O)c1CN(CCO)C2=O)C1CCOCC1", "note": "[Example 29, (E)-10-(ethyl(tetrahydro-2H-pyran-4-yl)amino)-15-(2-hydroxyethyl)-3-methyl-5,6,15,16-tetrahydrobenzo[c]pyrido[4,3-j][1]azacyclododecine-1,14(2H,9H)-dione]", "IC50": 1260}]}]}
